The conditions of test [1]: in vivo; cited from earlier work.
A further test relates to smallflower sedge. Briefly: Greenhouse test cyhalofop + thaxtomin A (Example 7). The settings on record: Cyhalofop 6.5 oz/acre, no thx A, 21-day evaluation. It counts as in vivo. Here is the method:
(§1) Cyhalofop (2-[4-(4-cyano-2-fluorophenoxy)phenoxy]propanoic acid, butyl ester) is also mixed together with adjuvant containing ethyl oleate, polyethylene dialky ester and ethoxylated nonylphenol (2.5% v/v) and increasing concentrations of thaxtomin A (purified from the ATCC strain 49003) at concentrations 0.1, 0.2 and 0.4 mg/ml. The concentrations of the 2-[4-(4-cyano-fluorophenoxy)phenoxy]propanoic acid, butyl ester before dilution are 29.6% (2.38 lb/gal) and 21.7% (2 lb/gal), respectively. The effect of these mixtures on the growth of common water plantain, red stem, smallflower sedge and sprangletop is determined in the greenhouse. Similarly, rice plants of variety M104 are grown and tested for phytotoxic effects, and all plants are evaluated 7, 14, and 21 days after treatment.

The next test deals with red stem. Described as above. Format: in vivo. The settings on record: Cyhalofop 6.5 oz/acre, no thx A; 21-day evaluation. The protocol:
as §1

Another test deals with common water plantain. The test is described as above. It counts as in vivo. The settings on record: Cyhalofop 6.5 oz/acre, no thx A; 21-day evaluation. The protocol:
as §1

The subject of a further test is sprangletop. The description is as above. It counts as in vivo. The settings on record: Cyhalofop 6.5 oz/acre, no thx A, 21-day evaluation. Here is the method:
as §1

A further test concerns sedge. The test can be described thus: Greenhouse synergy test MBI-005 + commercial herbicides (Example 11). Format: in vivo. To be noted: cyhalofop 1.176 mg/mL, 14 days. Here is the method: (§2) The test species barnyard grass, ragweed, sedge, and broad-leaf mustard were used for the valuation of synergy between MBI-005 and the rice herbicides clomazone, penoxsulam, cyhalofop, fenoxaprop-p-ethyl, bispyribac-sodium, thiobencarb, and propanil.
(§3) There were 3 replicates per treatment which were sprayed with approximately ⅔ ml per replicate. The treatments were completely randomized and kept in a greenhouse at 25° C. The efficacy was rated at 7 and 14 days post treatment.

For a further test, the system named is broad-leaf mustard. The test is described as above. Format: in vivo. The settings on record: 14 days. The protocol:
as §2, §3

The subject of test [2] is barnyard grass. The test can be described thus: Post-emergent MBI-005 + Propanil on barnyard grass (Example 20). It counts as in vivo. The settings on record: Echinochloa crus-galli, post-emergence, 336 h; 25% Propanil (of label rate); 14 days; read-out: Observed Average % Efficacy (E). Here is the method:
Negative controls were sprayed with water. Pots were randomly placed in a growth room at 25° C. and 50% RH, and watered as necessary. Treatments were replicated three times and evaluated at 7 and 14 days for visual % damage, with 0% indicating no damage and 100% indicating plant death.
(§4) Synergy was calculated as the ratio of observed (E) to expected (E/Ee) percent control using Colby's formula.

In test [3] the test system is small flower umbrella sedge. The test can be described thus: Post-emergent MBI-005 + rice herbicides on smallflower umbrella sedge (Example 19). It counts as in vivo. To be noted: Propanil .5% v/v of label rate; 14 days. Here is the method:
Twenty seedlings in 2.5 cm square pots containing plant growth mix were sprayed to full coverage using a hand sprayer. Negative controls were sprayed with water. Pots were randomly placed in a growth room at 25° C. and 50% RH, and watered as necessary. Treatments were replicated three times and evaluated at 7 and 14 days for visual % damage, with 0% indicating no damage and 100% indicating plant death.
as §4

For test [4], the system named is barnyard grass. The test can be described thus: Greenhouse synergy test MBI-005 + commercial herbicides (Example 11). It counts as in vivo. The settings on record: propanil 0.365 mg/mL, 14 days. Here is the method: as §2, §3

The values that follow come from US9066516B2, “Uses of thaxtomin and thaxtomin compositions as herbicides” (priority 2008, dated 2015).

Molecules are shown by their SMILES.

Take `CN1C(=O)[C@H](Cc2c[nH]c3cccc([N+](=O)[O-])c23)N(C)C(=O)[C@@H]1Cc1ccccc1` [thaxtomin D, reference compound]: the “activity as pre and post emergent, non-systemic herbicides” value in [1] is listed as “marked activity”.
As to `CCCCOC(=O)C(C)Oc1ccc(Oc2ccc(C#N)cc2F)cc1` (stereo not shown) [Cyhalofop, 2-[4-(4-cyano-2-fluorophenoxy)phenoxy]propanoic acid, butyl ester], the results for the Sedge % control in the test with smallflower sedge and in the test with smallflower sedge (listed as Clincher CA) were 0% and “poor on sedges”, respectively. Moreover, the Redstem % control in the test with red stem came out at 75%. For the same compound, the Waterplantain % control with common water plantain is reported as 8%. Besides, the Sprangletop % control is 90% with sprangletop and “good efficacy against grass weeds” in the test on sprangletop (listed as Clincher CA). Further, the entries for the “% Control Product” value in the test on sedge and with broad-leaf mustard (cyhalofop 0.051 mg/mL) were 3.3% and 11.7%, respectively.
Regarding `CCC(=O)Nc1ccc(Cl)c(Cl)c1` [propanil], in the test on barnyard grass [2], the Observed average % efficacy (visual damage) is 32.5%. Moreover, the “% control AI” value in test [3] is reported as 62.5%. Besides, the “% Control Product” value in the test with broad-leaf mustard (propanil 0.036 mg/mL) is recorded as 1.67%; in the test with barnyard grass [4], 32.5%.
